Experimental data reported in patent US10226534B2, “Semi-solid delivery systems” (REGENTS OF THE UNIVERSITY OF MINNESOTA, priority 2013, dated 2019).
Converted amounts (≈) assume the structure as drawn.

Assay: Solubilization of Nile Red in water aided by the semi-solid polymer
Format: physicochemical
Method: Nile Red (NR) is a hydrophobic molecule that is insoluble in water. 3 mg of NR solid particles suspended in 1 mL of aqueous phosphate buffered saline (PBS) without dissolving. With addition of 10% semi-solid polymer (100 mg), NR is completely solubilized in PBS to 3 mg/mL.

SMILES: CCN(CC)c1ccc2nc3c4ccccc4c(=O)cc-3oc2c1 [Nile Red]
- solubility (PBS with 10% semi-solid polymer, aqueous with cosolvent or surfactant or cyclodextrin, thermodynamic from solid, with addition of 10% semi-solid polymer (100 mg in 1 mL PBS)): 3000 µg/mL (≈ 9.42 mM)
- Solubility in water (without polymer): insoluble
